Test results: patent US8680059B2, “Oligopeptide acetate and formulations thereof” (Biotempt B.V., priority 1998, dated 2014)
“And” between values parts separate entries of the source, which are not always exact repeats. Equal values may be shown once. Peptide text beside a SMILES is read from it.

Legend:
[1] = Phase I human trial: plasma pharmacokinetics of EA-230; format: in vivo; conditions: for tmax: 15-min infusion; for AUC(0-t) / Cmax: plasma, iv
From the text: (§1) Part 1: A Phase I, double blind, randomized, single dose, placebo controlled, dose escalation study with 4 groups of 8 subjects (Groups 1-4). In each group 6 subjects were randomized to active medication and 2 to placebo. The first group received a single intravenous injection of EA-230 or placebo. After all subjects had completed Day 7 assessments, the safety review board decided on continuation of the study until the maximum tolerated dose had been assessed or the highest dose. Placebo subjects were pooled for analysis.
(§2) Part 2: A Phase I, double blind, randomized, single dose, placebo controlled study. The second part consisted of 1 group of 12 subjects (Group 5). All twelve subjects received LPS (4 ng/kg E. coli EC6) as a 2-minute injection, 30 minutes prior to EA-230 administration. […] Cytokines profiles were assessed to establish the effect of EA-230 on inflammatory parameters.
Plasma concentration time profiles of EA-230 were analyzed. Pharmacokinetic parameters AUC, clearance, volume of distribution and elimination half-life were obtained for EA-230.
PK samples were collected pre-dose and from 5 minutes to 4 hours after the start of study drug administration.

healthy male subjects = assay: Phase I human trial: safety; format: in vivo
From the text: as §1, §2
Adverse events (AEs), vital signs, ECG, hematology, clinical chemistry, and urinalysis.
Incidence of treatment emergent AEs and treatment emergent treatment related AEs were summarized. Hematological, biochemical, urinalysis parameters, vital signs and their changes from baseline were summarized over time using n, mean, standard deviation, median and range.

[2] = test system: mice, 25 minutes renal ischemia/reperfusion; assay: Mouse renal ischemia reperfusion test (mortality, BUN/serum urea); format: in vivo; design: BUN, mean / Urea level: unit not given here
Description: SEQ ID NO:2 was tested and compared with PBS (control) in a double blind animal study for the peptide's relative ability to aid recovery in a mouse renal ischemia reperfusion test. In this test, the mice were anesthetized, and one kidney from each mouse was removed. The other kidney was tied off for 25 minutes, and the serum urea levels were allowed to increase. Both before and after tying off, the peptide was administered to thirty (30) different mice (5 mg oligopeptide/kg body mass intravenously), after which, the mortality of the mice was determined for each oligopeptide as well as was the BUN concentration at two hours, 24 hours and 72 hours.
Under inhalation anesthesia, the left kidney with its artery and vein was isolated and occluded for 25 minutes using a microvascular clamp. During surgery animals were placed on a heating path to maintain body temperature at 37° C. Five minutes before placing the clamp, and 5 minutes before releasing the clamp, 5 mg/kg of peptide, dissolved in 0.1 mL of sterile saline, was administered intravenously. After reperfusion of the left kidney the right kidney was removed. Kidney function was assessed by measuring blood urea nitrogen before clamping, and at 2, 24, and 72 hours after reperfusion.
To determine dose-response relationships SEQ ID NO:2, was tested in a dose-response manner in the mice test as described above. Peptides were tested at 0.3, 1, 3, 10 and 30 mg/kg dosages given as described in Example I. Serum urea levels are presented in Table 3.

[3] = test system: BALB/c mice injected i.p. with LPS (E. coli 026:B6); assay: LPS-induced septic shock (endotoxin model) in BALB/c mice; format: in vivo, mouse; design: key to Sickness score of individual mouse: 0: No abnormalities.; 1: Percolated fur, but no detectable behavior differences compared to normal mice.; 2: Percolated fur, huddle reflex, responds to stimuli (such as tap on cage), just as active during handling as healthy mouse.; 3: Slower response to tap on cage, passive or docile when handled, but still curious when alone in a new setting.; 4: Lack of curiosity, little or no response to stimuli, quite immobile.; 5: Labored breathing, inability or slow to self-right after being rolled onto back (moribund, sacrificed).; Dead; conditions: for Survival %: group of 6, 48 hrs
Description: Mice used in sepsis or septic shock experiments: Female BALB/c mice of 8-12 weeks of age were used for all experiments. The animals were bred in our facility under specific pathogen-free conditions according to the protocols described in the Report of European Laboratory Animal Science Associations (FELASA) Working group on Animal Health (Laboratory Animals 28: 1-24, 1994).
Injection protocols: For the endotoxin model, BALB/c mice were injected i.p. with 150-300 μg LPS (E. coli 026:B6; Difco Lab., Detroit, Mich., USA). Control groups were treated with PBS i.p. only. To test the effect of peptides, they were dissolved in PBS and injected i.p. at predetermined points in time after LPS treatment.
Mice were scored for sickness severity using the following measurement scheme: • 0 No abnormalities. • 1 Percolated fur, but no detectable behavior differences compared to normal mice. • 2 Percolated fur, huddle reflex, responds to stimuli (such as tap on cage), just as active during handling as healthy mouse. • 3 Slower response to tap on cage, passive or docile when handled, but still curious when alone in a new setting. • 4 Lack of curiosity, little or no response to stimuli, quite immobile. • 5 Labored breathing, inability or slow to self-right after being rolled onto back (moribund, sacrificed). • D Dead […]
A comparative trial was set up to compare peptide MTR and SEQ ID NO:2. The comparative trial comprised 6 groups of 6 animals; two groups (1A and 1B) receiving placebo (PBS), one group (2) peptide MTR (source Pepscan, Lelystad, NL), one group (3) receiving peptide MTR (source Ansynth), one group (4) receiving peptide SEQ ID NO:2 (source Pepscan) and one group peptide SEQ ID NO:2 (source Ansynth). Peptide/placebo in these groups was administered 2 hours after LPS. LPS (source) was used at 10-11 mg/kg. Sickness scores were done at 0, 2, 22 26 42 and 48 hours after LPS injection.

[4] = 1 mg/kg, 1 mg/kg i.v. 2-min infusion, N = 6, arithmetic mean ± SD
[5] = 3 mg/kg, 3 mg/kg i.v. 2-min infusion, N = 6, arithmetic mean ± SD
[6] = 10 mg/kg, 10 mg/kg i.v. 15-min infusion, N = 6, arithmetic mean ± SD
[7] = 10 mg/kg, Part 2, LPS + 10 mg/kg i.v. 15-min infusion, arithmetic mean ± SD
[8] = 30 mg/kg, 30 mg/kg i.v. 15-min infusion, N = 6, arithmetic mean ± SD

CC(C)[C@H](NC(=O)CNC(=O)[C@H](CCC(N)=O)NC(=O)[C@H](C)N)C(=O)O [EA-230, H-Ala-Gln-Gly-Val-OH.xAcOH] (H-AQGV-OH)
tmax ([1]; 10 mg/kg EA-230 alone): 5 minutes before the end of infusion
time by which average plasma concentrations were below LOQ ([1]; 1-mg/kg dose): ≤ 15 min
time by which average plasma concentrations were below LOQ ([1]; 30-mg/kg dose, after dosing): ≤ 120 min
tmax ([1]; most subjects, 10 mg/kg EA-230 with LPS challenge): 10 minutes before the end of infusion
AUC(0-t) [1, 4]: 2.5 ng·h/mL
Cmax [1, 4]: 32.5 ng/mL
AUC(0-t) [1, 5]: 11.8 ng·h/mL
Cmax [1, 5]: 132 ± 76.4 ng/mL
AUC(0-t) [1, 6]: 217 ng·h/mL
Cmax [1, 6]: 1600 ± 1130 ng/mL
AUC(0-t) [1, 7]: 303 ng·h/mL
Cmax [1, 7]: 1710 ± 1330 ng/mL
AUC(0-t) [1, 8]: 595 ng·h/mL
Cmax [1, 8]: 3220 ± 1080 ng/mL
elimination from plasma ([1]; single i.v. dose 1-30 mg/kg): rapidly eliminated
AE occurrence, placebo vs active subjects (healthy male subjects): No difference in AE occurrence
safety and tolerability of a single dose (healthy male subjects; 1 mg/kg to 30 mg/kg i.v.): safe and well tolerated
number or intensity of AEs with the dose (healthy male subjects; escalating dose part 1-30 mg/kg): No increase in the number or intensity of AEs
QTc (healthy male subjects; whole study): No abnormal QTc
serious adverse events (SAE) (healthy male subjects; whole study): No SAE occurred

AQG
Urea level ([2]; 0.3 mg/kg, 24 h): 38.4
Urea level ([2]; 0.3 mg/kg, 72 h): 30.4
Urea level ([2]; 1.0 mg/kg, 24 h): 48.4
Urea level ([2]; 1.0 mg/kg, 72 h): 38.4
Urea level ([2]; 3.0 mg/kg, 24 h): 39.3
Urea level ([2]; 3.0 mg/kg, 72 h): 40.3
Urea level ([2]; 10.0 mg/kg, 24 h): 46.8
Urea level ([2]; 10.0 mg/kg, 72 h): 25.8
Urea level ([2]; 30.0 mg/kg, 24 h): 52.8
Urea level ([2]; 30.0 mg/kg, 72 h): 58.9

MTR
Sickness score of individual mouse ([3]; source Ansynth (#Ansynth 12/46) 2 hours after LPS 10-11 mg/kg, 0 hrs (before peptide)): 0
Sickness score of individual mouse ([3]; source Ansynth (#Ansynth 12/46) 2 hours after LPS 10-11 mg/kg, 2 hrs (at peptide administration)): 2
Sickness score of individual mouse ([3]; source Ansynth (#Ansynth 12/46) 2 hours after LPS 10-11 mg/kg, 22 hrs): 2 (4×) and 4 and 3
Sickness score of individual mouse ([3]; source Ansynth (#Ansynth 12/46) 2 hours after LPS 10-11 mg/kg, 26 hrs): 1 and 2 (2×) and 5 and 4 and 3
Sickness score of individual mouse ([3]; source Ansynth (#Ansynth 12/46) 2 hours after LPS 10-11 mg/kg, 42 hrs): 1 and 2 (2×) and dead and 4 and 5
Sickness score of individual mouse ([3]; source Ansynth (#Ansynth 12/46) 2 hours after LPS 10-11 mg/kg, 48 hrs): 1 (2×) and dead (2×) and 2
Survival % ([3]; source Ansynth (#Ansynth 12/46) 2 hours after LPS 10-11 mg/kg): 50%
Sickness score of individual mouse ([3]; source Pepscan (#970/#971) 5 mg/kg 2 hours after LPS 10-11 mg/kg, 0 hrs (before peptide)): 0
Sickness score of individual mouse ([3]; source Pepscan (#970/#971) 5 mg/kg 2 hours after LPS 10-11 mg/kg, 2 hrs (at peptide administration)): 2
Sickness score of individual mouse ([3]; source Pepscan (#970/#971) 5 mg/kg 2 hours after LPS 10-11 mg/kg, 22 hrs): dead and 3 and 2 (3×) and 4
Sickness score of individual mouse ([3]; source Pepscan (#970/#971) 5 mg/kg 2 hours after LPS 10-11 mg/kg, 26 hrs): 3 and 2 (3×) and 5
Sickness score of individual mouse ([3]; source Pepscan (#970/#971) 5 mg/kg 2 hours after LPS 10-11 mg/kg, 42 hrs): 5 and 2 (2×) and 4 and dead
Sickness score of individual mouse ([3]; source Pepscan (#970/#971) 5 mg/kg 2 hours after LPS 10-11 mg/kg, 48 hrs): dead (2×) and 2 (2×)
Survival % ([3]; source Pepscan (#970/#971) 5 mg/kg 2 hours after LPS 10-11 mg/kg): 33%
